Results: patent publication US20020156038A1, “Gene expression profiling of antidepressant action in the brain” (priority 2000, published 2002)
Counter-ions that a name gives are not always drawn.

How the values were obtained:
male Wistar rats = assay: Chronic mild stress (CMS) model, consumption of 1% sucrose solution; type: in vivo, rat; conditions: for sucrose intake as compared to chronic vehicle administration: control animals; for duration of treatment until increase of sucrose intake reached significance / sucrose consumption (CMS-induced deficit) / sucrose intake at end of treatment vs vehicle-treated controls / sucrose intake at end of treatment vs vehicle-treated stressed animals: stressed animals; for sucrose intake at end of treatment vs vehicle-treated controls / sucrose intake at end of treatment vs vehicle-treated stressed animals: Week 5
Source text: Gene expression profiling of antidepressants should be carried in the context of a behavioral model of depression. […] [Willner, 1997 #144] [Yadid, 2000 #422]. The CMS model was developed to mimic anhedonia, a core symptom of depressive disorders. Chronic sequential administration of a variety of mild stressors causes a decrease in responsiveness to rewards in rats, which is reversed by chronic administration of antidepressants drugs [Willner, 1992 #150]. The CMS model of depression also causes a decrease in body weight [Forbes, 1996 #413] but the magnitude of this decrease is minor and the validity, reliability and utility of the CMS is overall well recognized [Yadid, 2000 #422] [Argyropoulos, 1997 #205] #] [Willner, 1996 #226].
On the basis of sucrose intake scores following two weeks of stress, both stressed and control groups were divided further into matched subgroups (n=8), and for the subsequent five weeks received twice-daily intraperitoneal injections of vehicle (isotonic mannitol solution, pH 4.0, 1 ml/kg) or novelR1 (0.16 mg/kg). […] Sucrose tests were carried out twenty-four hours following the last drug injection (in the case of b.i.d. regime, the second injections on the day preceding the sucrose tests were omitted).
The behavioral results obtained in this study were analyzed by multiple analysis of variance with three between-subjects factors (stress/control, drug treatments and successive sucrose tests). Fisher's LSD test was used for post-hoc comparisons of means.

[1] = tested on: tyrosine hydroxylase mRNA; assay: Quantitative in situ hybridization histochemistry in locus coeruleus; type: in vivo, rat; conditions: LC
Method: In situ hybridization histochemistry was performed according to the procedures described [Bonaventure, 1998 #353] on adjacent tissue sections of the one used for LCM. The plasmid (pBluescript II SK, Stratagene, San Diego, Calif.) containing the cDNA coding for tyrosine hydroxylase (GB:M10244) was linearized and [^35S]UTP labeled cRNA probe was generated by in vitro transcription with T7 polymerase. Sections were hybridized at 50° C. with 1.106 c.p.m of [^35S]UTP labeled cRNA probe (80 μl per section). After high stringency washes, the sections were exposed to Kodak BiomaxMR film for sixteen hours. [^14C] standard strips (American Radiolabeled chemicals Inc., St Louis, Missouri) were co-exposed to allow densitometry. Autoradiograms were quantified with the aid of an MCID-M4 3.0 Image Analysis system (Imaging Research, St. Catharines, Ontario, Canada). Optical densities in the LC were transformed into levels of bound radioactivity after calibration of the image analyzer with grey-values generated by co-exposed standards. The hybridization signal was expressed as μCi/g. The Student's t-test was used for comparison between the groups.

Row | up-regulation of tyrosine hydroxylase mRNA level by in situ hybridization ([1]; drug/CMS group) | up-regulation of tyrosine hydroxylase mRNA level by in situ hybridization ([1]; unstressed rats) | Structure (SMILES) | sucrose intake at the end of the behavioral experiment (male Wistar rats; CMS) [grams] | sucrose intake at the end of the behavioral experiment (male Wistar rats; control) [grams] | sucrose intake as compared to chronic vehicle administration (male Wistar rats) | duration of treatment until increase of sucrose intake reached significance (male Wistar rats) | sucrose consumption (CMS-induced deficit) (male Wistar rats) | sucrose intake at end of treatment vs vehicle-treated controls (male Wistar rats) | sucrose intake at end of treatment vs vehicle-treated stressed animals (male Wistar rats)
1 | confirmed | confirmed | CN(C)CCCN1c2ccccc2CCc2ccccc21 [imipramine, imipramine HCl] | 13 | 13 | did not change the sucrose intake | three | gradually increased the sucrose consumption | comparable | significantly higher
2 | confirmed | confirmed | Cc1nc2ccccn2c(=O)c1CCN1CCc2oc3ccccc3c2C1 [novelR1] | 13 | 13 | no significant effect | two | fully reversed | did not differ | significantly higher
